Assay results reported in US20180116993A1, “MODULATORS OF FARNESOID X RECEPTOR AND METHODS FOR THE USE THEREOF” (XIAMEN UNIVERSITY, priority 2015, published 2018).
Marks after values point to notes of the source that are not given here.

Experiments:
KK-Ay mice = assay: Serum metabolic parameters in high-fat diet fed diabetic KK-Ay mice; type: in vivo, mouse; settings: serum, 20 mg/kg for 14 days
Description: KK-Ay mice (KK/Upj-Ay/J) are animal models with moderate obese and diabetes with insulin resistance. KK-Ay mice develop hyperglycemia, hyperinsulinemia, glucose intolerance and obesity as well as fat accumulation in liver by eight weeks of age. Pancreatic islets are hypertrophied and the β-cells are degranulated. db/db mice (BKS.Cg-Dockr+/+ Lepr^db/Jnju) are animal models of type II diabetes. They have the phenotype of insulin resistance. These model mice were used to detect the functions of our compounds on metabolic diseases.
(§1) 8-10 weeks age mice were maintained as example 4, and fed with high-fat diet (Research Diets, D12492). Mice were i.p. injected with compounds once daily for 7, 10, 11 or 14 days as indicated in each table. After the last compounds injection, mice were fasted for 6 hours with free access to water, and then sacrificed. Part of each liver was fixed in 4% paraformaldehyde for H&E staining, and other liver tissues were stored in liquid nitrogen for enzyme activity measurement and gene expression analysis by RT-PCR. The serums were collected to measure metabolic parameters, including serum glucose, insulin, cholesterol, free fatty acid (FFA) and triglyceride levels. Serum glucose was analyzed using glucose oxidase method (Applygen, Beijing, China). The blood glucose in Table 11 was measured with Berenger blood glucose test strips (B/BRAUN, German) from blood by cutting mice tail after the 6th injection and following fast for 16 hours. Serum cholesterol and FFA were analyzed using Cholesterol Assay Kit and FFA Assay Kit (Bioassay Systems, USA; Nanjing Jiancheng Bioengineering Institute, China; FFA ELISA, R&D, USA), respectively. Serum triglyceride was analyzed using Triglyceride Assay Kit (Bioassay Systems, USA; WAKO Chemicals Inc., Japan; Applygen, Beijing, China). Liver triglyceride was analyzed using Tissue triglyceride assay kit (Applygen, Beijing, China). Serum insulin levels were measured by the Ultra Sensitive Mouse Insulin ELISA Kit (Crystal Chem. Inc., USA). RNA was isolated using Tissue RNA kit (Omega Bio-Tek, GA). The first strand cDNA were obtained by TAKARA reverse transcription kit. Real-time quantitative PCR were performed on a CFX96™ Real-Time PCR Detection System (Bio-Rad) using SYBR Premix Ex Taq™ (TAKARA). Relative mRNA expression levels were normalized to actin levels.

[1] = system: genes related to metabolism in liver of KK-Ay mice; assay: Liver mRNA levels of metabolism genes in KK-Ay mice (RT-PCR); type: in vivo, mouse; settings: 20 mg/kg for 14 days
Description: as §1
Triglyceride accumulation is due to the imbalance between triglyceride synthesis and clearance. One key gene controlling hepatic lipogenesis is SREBP-1c, whose up-regulation has been implicated in occurrence of hepatic steatosis. Liver-specific inhibition of ChREBP improves hepatic steatosis and insulin resistance in ob/ob mice (see e.g., Renaud (2006) Diabetes, 55(8):2159-70.). […] The gene expression pattern in KK-Ay mice liver further explained the underlying molecular mechanism for the reduction of lipid accumulation by the FXR-ligand compounds (Table 9).

[2] = vehicle = 1, listed as feroline
[3] = vehicle = 1, listed as tschimganine

C/C1=C\CCC(C)(O)/C=C/C(C(C)C)C(OC(=O)c2ccc(O)cc2)C1 (stereo not drawn) [Feroline]
Cholesterol (mg/dl) (KK-Ay mice): 116 ± 10^a mg/dl
FFA (μM) (KK-Ay mice): 122 ± 30^b μM
Glucose (mg/dl) (KK-Ay mice): 177 ± 16^a mg/dl
Triglyceride (mg/dl) (KK-Ay mice): 136 ± 8^a mg/dl
mRNA levels in liver, CHREBP ([1]; vehicle = 1): 0.4 ± 0.1^b
mRNA levels in liver, FDFT1 ([1]; vehicle = 1): 0.75 ± 0.1^a
mRNA levels in liver, G6PC ([1]; vehicle = 1): 0.66 ± 0.07^a
mRNA levels in liver, GK ([1]; vehicle = 1): 0.74 ± 0.11
mRNA levels in liver, SREBP1c ([1]; vehicle = 1): 0.3 ± 0.08^b
mRNA levels in liver, CHREBP [1, 2]: decreased
mRNA levels in liver, SREBP1c [1, 2]: decreased

COc1cc(C(=O)O[C@H]2C[C@H]3CC[C@]2(C)C3(C)C)ccc1O [Tschimganine]
FFA (μM) (KK-Ay mice): 151 ± 14^a μM
Glucose (mg/dl) (KK-Ay mice): 123 ± 10^b mg/dl
Triglyceride (mg/dl) (KK-Ay mice): 134 ± 15^a mg/dl
mRNA levels in liver, CHREBP ([1]; vehicle = 1): 0.43 ± 0.08^a
mRNA levels in liver, FDFT1 ([1]; vehicle = 1): 0.77 ± 0.06^a
mRNA levels in liver, G6PC ([1]; vehicle = 1): 0.59 ± 0.08^a
mRNA levels in liver, GK ([1]; vehicle = 1): 0.54 ± 0.07^a
mRNA levels in liver, SREBP1c ([1]; vehicle = 1): 0.38 ± 0.05^a
mRNA levels in liver, CHREBP [1, 3]: decreased
mRNA levels in liver, SREBP1c [1, 3]: decreased
